Data on eight substances can be found in patent US10919941B2, “Functional lipid constructs” (KODE BIOTECH LIMITED, priority 2007, dated 2021).

No end group written: not given here.

Holding throughout (assay type): cell-based, human
Experiment [1] concerns sera reactive with modified RBCs. Kind of experiment: Neutralisation of reactive sera with free peptide, retested against modified RBCs (BioVue). Details: key: 0 or ‘−’ no agglutination; 0 or ‘−’ no agglutination; 1+ or 3=very weak agglutination; 1+ or 3=very weak agglutination; 2+ or 5=weak agglutination; 2+ or 5=weak agglutination; 3+ or 8=moderate strong agglutination; 3+ or 8=moderate strong agglutination; 4+ or 10/12=strong agglutination; 4+ or 10/12=strong agglutination; 4+ or 10/12=strong agglutination. Conditions: 40 μl plasma + 10 μl neutraliser 1.0 mg/ml, 30 minutes 37° C.; for Post-neutralisation serology, PAC74 / Post-neutralisation serology, TAP1: cells modified with M22. From the text: Optionally, where F is a peptide, the method includes the preliminary step of: • Adding an amount of the peptide to the sample of the serum; where the amount of the peptide is sufficient to neutralize non-specific agglutination or confirm specificity of the reactive antibody.

The subject of experiment [2] is Miltenberger Antibody Positive Panel. As to the kind of experiment: Reactivity of modified RBCs against the Miltenberger Antibody Positive Panel. Details: key to score vs panel 15 TAP2 / score vs panel 4 T7202 / score vs panel 8 T5896 / score vs panel 2 T217 / score vs panel 3 T165 / score vs panel 14 TAP1 / score vs panel 10 Mia / score vs panel 11 Mur / score vs panel 12 Gam / score vs panel 6 T6025 / score vs panel 7 T8445 / score vs panel 9 MIII / score vs panel 13 BoxH / reactivity with Panel Serum #7 (T8445) / agglutination score, Panel Serum #7 (T8445): 0 or ‘−’ no agglutination; 0 or ‘−’ no agglutination; 1+ or 3=very weak agglutination; 1+ or 3=very weak agglutination; 2+ or 5=weak agglutination; 2+ or 5=weak agglutination; 3+ or 8=moderate strong agglutination; 3+ or 8=moderate strong agglutination; 4+ or 10/12=strong agglutination; 4+ or 10/12=strong agglutination; 4+ or 10/12=strong agglutination. Conditions: for score vs panel 2 T217 / score vs panel 4 T7202 / score vs panel 8 T5896 / score vs panel 15 TAP2 / score vs panel 7 T8445: Table 9, construct 50 μg/ml; for agglutination score, Panel Serum #7 (T8445): cells modified at 50 μg/ml, 2 hour 37° C., BioVue AHG cards; for reactivity with Panel Serum #7 (T8445): construct 50 μg/ml (2 hours, 37° C.). Here is the method: (§1) Red blood cells are modified by mixing 1 part by volume of washed packed red blood cells with 1 part by volume of peptide-lipid construct dispersed at a concentration of 10 to 1000 pg/ml in cell media (Celpresol™).
(§2) The suspensions are either: • 1. incubated for 2 hours at 37° C. before being washed and suspended in a cell medium for serological analysis at a concentration of 0.8 to 3% (Method 1); or • 2. incubated for 3 to 4 hours at room temperature (circa 25° C.) followed by 18 hours at 4° C. before being washed and suspended in a cell medium for serological analysis at a concentration of 0.8 to 3% (Method 2).
(§3) Serological reactions are graded or scored by either of two established systems (0 or ‘−’ no agglutination, 1+ or 3=very weak agglutination, 2+ or 5=weak agglutination, 3+ or 8=moderate strong agglutination, 4+ or 10/12=strong agglutination)
(§4) Serological platforms used are Tube (addition of reagents and reactants into plastic or glass serology tubes and after appropriate incubations, washing and centrifugation observing reactions macroscopically by eye and a 10× magnification eyepiece and scoring) and BioVue™ (addition of reactants into cassettes containing beads (including some reactants) and after appropriate incubations and centrifugation observing the reaction patterns trapped within the Gel matrix). BioVue is the serological column agglutination platform of Ortho-Clinical Diagnostics. Diamed is the serological column agglutination platform of Diamed AG.

Experiment [3] deals with antibody negative serums. Kind of experiment: False positive reactions of modified RBCs with antibody negative serums/plasma. Set-up: key to Reaction score BioVue AHG, PAC samples 1-46, 49, 50, 52, 53 / Reaction score BioVue AHG, PAC sample 47 / Reaction score BioVue AHG, PAC sample 48 / Reaction score BioVue AHG, PAC sample 51 / agglutination score, T series serum 2 / agglutination score, T series serum 42 / agglutination score, T series serum 63 / agglutination score, T series serum 62 / agglutination score, T series serum 7 / agglutination score, T series serum 20 / agglutination score, T series serum 48 / agglutination score, T series serum 22 / agglutination score, T series serum 39 / agglutination score, T series serum 23 / agglutination score, T series serum 30 / agglutination score, T series serum 4 / agglutination score, T series serum 31 / agglutination score, T series serum 44 / agglutination score, T series serum 61 / agglutination score, T series serum 18 / agglutination score, T series serum 21 / agglutination score, T series serum 28 / agglutination score, T series serum 55 / agglutination score, false positive serum T18 / agglutination score, false positive serum T21 / agglutination score, false positive serum T28 / agglutination score, false positive serum T55 / agglutination score, false positive serum T78 / agglutination score, false positive serum T92: 0 or ‘−’ no agglutination; 0 or ‘−’ no agglutination; 1+ or 3=very weak agglutination; 1+ or 3=very weak agglutination; 2+ or 5=weak agglutination; 2+ or 5=weak agglutination; 3+ or 8=moderate strong agglutination; 3+ or 8=moderate strong agglutination; 4+ or 10/12=strong agglutination; 4+ or 10/12=strong agglutination; 4+ or 10/12=strong agglutination.

Experiment [4] relates to Miltenberger antibody positive sera. As to the kind of experiment: BioVue AHG card column agglutination serology of modified red blood cells. Conditions: construct 50 μg/ml. Set-up: key: 0 or ‘−’ no agglutination; 0 or ‘−’ no agglutination; 1+ or 3=very weak agglutination; 1+ or 3=very weak agglutination; 2+ or 5=weak agglutination; 2+ or 5=weak agglutination; 3+ or 8=moderate strong agglutination; 3+ or 8=moderate strong agglutination; 4+ or 10/12=strong agglutination; 4+ or 10/12=strong agglutination; 4+ or 10/12=strong agglutination. How it is done:
as §1, §2, §3, §4

Setting [5] is: head: cells modified with the peptide-lipid construct M22 (title: M28).
Setting [6] is: larger series = 102, cells modified at 50 μg/ml, 2 hour 37° C., BioVue AHG cards.
Where [7] appears, read: cells modified at 50 μg/ml, 2 hour 37° C., BioVue AHG cards.
Where [8] appears, read: blood donor plasma, construct 50 μg/ml (2 hours, 37° C.).

For M22 peptide (SQTNDKHKRDC), the “Post-neutralisation serology, PAC74” value in experiment [1] was determined as 8. For the same substance, in experiment [1] (setting [5]), the “Post-neutralisation serology, PAC70” value turned out to be 8 and the “Post-neutralisation serology, TAP2” value stood at 3.

As to M28 peptide (TYPAHTANEC), in experiment [1], the “Post-neutralisation serology, PAC74” value is given as 8 and the “Post-neutralisation serology, TAP1” value was found to be 8. The “Post-neutralisation serology, TAP2” value in experiment [1] (setting [5]) is listed as 8.

On to “M29: DOPE peptide-lipid construct: Mur peptide PAHTANEVS, leader c, spacer CMG(2) (PAHTANEVSC; also: DOPE peptide-lipid construct via leader Cys, spacer CMG(2))”, for which, in experiment [2], the “score vs panel 2 T217” value stood at 0, the “score vs panel 4 T7202” value is recorded as 10, the “score vs panel 8 T5896” value amounted to 0 and the “score vs panel 15 TAP2” value turned out to be 8. In addition, in experiment [2], the “agglutination score, Panel Serum #7 (T8445)” value (shortened to “agglutination score … (T8445)”) came out at 8 and the “reactivity with Panel Serum #7 (T8445)” value turned out to be 8. In experiment [3] (setting [6]), the “agglutination score, false positive serum T28” value was 5 and the “agglutination score, false positive serum T92” value is given as 8.

As for “M30: DOPE peptide-lipid construct: Mur peptide DTYPAHTANE, leader c, spacer CMG(2) (DTYPAHTANEC; also: DOPE peptide-lipid construct via leader Cys, spacer CMG(2))”, in experiment [2], the “score vs panel 2 T217” value stood at 0, the “score vs panel 4 T7202” value is 10, the “score vs panel 7 T8445” value is 8 and the “score vs panel 8 T5896” value was 0. Besides, in experiment [2], the “score vs panel 15 TAP2” value was determined as 8; the “agglutination score … (T8445)” value was found to be 8; the “reactivity with Panel Serum #7 (T8445)” value is on record as 8. The “% positive” value in experiment [3] (T series reactives (n = 58), BioVue AHG cards) is given as 9%. Further, in experiment [3] (setting [7]), the “agglutination score, T series serum 2” value came out at 10; the “agglutination score, T series serum 4” value is listed as 8; the “agglutination score, T series serum 7” value was 0; the “agglutination score, T series serum 18” value was 0. For the same substance, in experiment [3] (setting [7]), the “agglutination score, T series serum 20” value came to 0; the “agglutination score, T series serum 21” value came out at 0; the “agglutination score, T series serum 22” value is listed as 0; the “agglutination score, T series serum 23” value was found to be 0. In experiment [3] (setting [7]), the “agglutination score, T series serum 28” value turned out to be 0; the “agglutination score, T series serum 30” value is listed as 0; the “agglutination score, T series serum 31” value is recorded as 8; the “agglutination score, T series serum 39” value turned out to be 0. In experiment [3] (setting [7]), the “agglutination score, T series serum 42” value is reported as 0; the “agglutination score, T series serum 44” value was found to be 10; the “agglutination score, T series serum 48” value was determined as 0; the “agglutination score, T series serum 55” value is 0. In experiment [3] (setting [7]), the “agglutination score, T series serum 61” value was found to be 10; the “agglutination score, T series serum 62” value was determined as 0; the “agglutination score, T series serum 63” value stood at 0.

For the substance “M31: DOPE peptide-lipid construct: Mur peptide YPAHTANEVS, leader c, spacer CMG(2) (YPAHTANEVSC; also: DOPE peptide-lipid construct via leader Cys, spacer CMG(2))”, in experiment [2], the “score vs panel 2 T217” value came to 0, the “score vs panel 4 T7202” value amounted to 10, the “score vs panel 7 T8445” value amounted to 8 and the “score vs panel 8 T5896” value was 0. For the same substance, in experiment [2], the “score vs panel 15 TAP2” value was 0; the “agglutination score … (T8445)” value turned out to be 8; the “reactivity with Panel Serum #7 (T8445)” value is on record as 8. In experiment [3] (setting [6]), the “agglutination score, false positive serum T21” value turned out to be 10; the “agglutination score, false positive serum T28” value turned out to be 12; the “agglutination score, false positive serum T78” value stood at 8; the “agglutination score, false positive serum T92” value amounted to 12.

Consider “M40: DOPE peptide-lipid construct: Hil peptide EEETGETGQL, leader c, spacer CMG(2) (EEETGETGQLC; also: DOPE peptide-lipid construct via leader Cys, spacer CMG(2))”, for which, in experiment [4], the “BioVue score vs TAP1” value was found to be 0, the “BioVue score vs positive sample 2 T217 (T)” value is listed as 0, the “BioVue score vs positive sample 3 T165 (Mur)” value is given as 0 and the “BioVue score vs positive sample 4 T7202 (M)” value came to 0. Also, the “BioVue score vs positive sample 8 T5896 (M + K + Mur)” value in experiment [4] came to 0. In experiment [3] (setting [8]), the “Reaction score BioVue AHG, PAC sample 47” value worked out at 0; the “Reaction score BioVue AHG, PAC sample 48” value is recorded as 0; the “Reaction score BioVue AHG, PAC sample 51” value is reported as 0; the “Reaction score BioVue AHG, PAC samples 1-46, 49, 50, 52, 53” value was 0. Also, the “% False Positives” value in experiment [3] (panel of blood donor plasma samples (PAC), BioVue AHG, construct 50 μg/ml) was found to be 0%.

With “M41: DOPE peptide-lipid construct: Hil peptide ETGETGQLVH, leader c, spacer CMG(2) (ETGETGQLVHC; also: DOPE peptide-lipid construct via leader Cys, spacer CMG(2))”, in experiment [4], the “BioVue score vs TAP1” value stood at 0, the “BioVue score vs positive sample 2 T217 (T)” value was 0, the “BioVue score vs positive sample 3 T165 (Mur)” value is 0 and the “BioVue score vs positive sample 4 T7202 (M)” value came to 0. Besides, in experiment [4], the “BioVue score vs positive sample 8 T5896 (M + K + Mur)” value was determined as 0.

Regarding VMYASSG?, in experiment [1], the “Post-neutralisation serology, PAC74” value came out at 8 and the “Post-neutralisation serology, TAP1” value was 8. Further, in experiment [1] (setting [5]), the “Post-neutralisation serology, PAC70” value was 8; the “Post-neutralisation serology, PAC71” value is 5; the “Post-neutralisation serology, PAC72” value is 5; the “Post-neutralisation serology, TAP2” value came to 8.
